Results reported in US20200138827A1, “SMALL MOLECULE MODULATORS OF HUMAN STING” (Curadev Pharma Limited, priority 2017, published 2020).

Target: T1, WT/R232 STING protein (Homo sapiens, UniProt Q86WV6, H232R)
T1 construct: host or cells: HEK293T
Test: Luciferase reporter assay in HEK293T-hSTING-Luciferase cells, WT/R232
Assay type: cell-based
Conditions: 20 hr stimulation, read-out: R232 Activity (EC50 range)
How it was run: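 Clonal HEK293T cells stably expressing human STING R232 plus an ISRE/ISG54-driven luciferase reporter, 5×10^5 per well, stimulated with compounds for 20 h. Secreted luciferase in supernatant measured by luminescence; […].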

T1 sequence (Q86WV6 whole entry H232R): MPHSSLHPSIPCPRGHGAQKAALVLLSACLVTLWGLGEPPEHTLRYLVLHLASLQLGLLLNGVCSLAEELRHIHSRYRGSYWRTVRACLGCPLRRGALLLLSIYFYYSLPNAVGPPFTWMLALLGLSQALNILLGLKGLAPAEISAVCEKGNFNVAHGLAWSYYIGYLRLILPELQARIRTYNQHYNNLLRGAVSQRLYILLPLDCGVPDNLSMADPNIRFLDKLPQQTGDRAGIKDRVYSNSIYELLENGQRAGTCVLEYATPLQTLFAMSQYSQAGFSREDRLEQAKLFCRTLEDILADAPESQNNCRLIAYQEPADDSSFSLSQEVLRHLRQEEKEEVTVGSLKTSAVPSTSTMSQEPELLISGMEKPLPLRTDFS

SMILES	EC50
Cc1ccc(CNC(=O)c2cnc3c(c2)N(Cc2cc(F)cc(F)c2)C(=O)C(C)(CO)S3)o1 (centres unmarked) [Example 209, 1-(3,5-difluorobenzyl)-3-(hydroxymethyl)-3-methyl-N-((5-methylfuran-2-yl)methyl)-2-oxo-2,3-dihydro-1H-pyrido [2,3-b] [1,4]thiazine-7-carboxamide]	> 10 µM
CC1Sc2ccc(C(=O)NCc3c(F)cc(F)cc3F)nc2N(Cc2c(F)cccc2Cl)C1=O (centres unmarked) [Example 186, 4-(2-chloro-6-fluorobenzyl)-2-methyl-3-oxo-N-(2,4,6-trifluorobenzyl)-3,4-dihydro-2H-pyrido[3,2-b-1,4]thiazine-6-carboxamide]	1 to 10 µM
O=C(NCC1CCCN(c2ccccc2)C1)c1ccc2c(c1)N(Cc1ccccc1F)C(=O)CS2 (centres unmarked) [Example 49, 4-(2-fluorobenzyl)-3-oxo-N-((1-phenyl-piperidin-3-yl)methyl)-3,4-dihydro-2H benzo[b][1,4] thiazine-6-carboxamide]	> 10 µM
CC1Sc2ncc(C(=O)NCc3ccn(C)n3)cc2N(Cc2cc(F)cc(F)c2)C1=O (centres unmarked) [Example 215, 1-(3,5-difluorobenzyl)-3-methyl-N-((1-methyl-1H-pyrazol-3-yl)methyl)-2-oxo-2,3-dihydro-1H-pyrido[2,3-b][1,4]thiazine-7-carboxamide]	> 10 µM
O=C(NCc1ccco1)c1ccc2c(c1)N(CCc1ccccc1)C(=O)CS2 [Example 8, N-(furan-2-ylmethyl)-3-oxo-4-phenethyl-3,4-dihydro-2H-benzo[b-1,4]thiazine-6-carboxamide]	> 10 µM
O=C(NCC1CCCCC1)c1cnc2c(c1)N(Cc1c(F)cccc1Cl)C(=O)CS2 [Example 179, 1-(2-chloro-6-fluorobenzyl)-N-(cyclohexyl-methyl)-2-oxo-2,3-dihydro-1H-pyrido[2,3-b-1,4]thiazine-7-carboxamide]	> 10 µM
O=C(CN1C(=O)CSc2ccc(C(=O)NCc3ccco3)cc21)c1ccccc1 [Example 2, N-(furan-2-ylmethyl)-3-oxo-4-(2-oxo-2-phenylethyl)-3,4-dihydro-2H-benzo[b][1,4] thiazine-6-carboxamide]	> 10 µM
O=C(NCc1c(F)cc(F)cc1F)c1cnc2c(c1)N(Cc1cc(F)cc(F)c1)C(=O)CC2 [Example 276, 5-(3,5-Difluorobenzyl)-6-oxo-N-(2,4,6-trifluorobenzyl)-5,6,7,8-tetrahydro-1,5-naphthyridine-3-carboxamide]	1 to 10 µM
O=C(NCc1cc2ccncc2o1)c1ccc2c(c1)N(Cc1cc(F)cc(F)c1)C(=O)CC2 [Example 272, 1-(3,5-difluorobenzyl)-N-(furo[2,3-c]pyridin-2-ylmethyl)-2-oxo-1,2,3,4-tetrahydroquinoline-7-carboxamide]	> 10 µM
N#Cc1ccc(CNC(=O)c2ccc3c(c2)N(Cc2ccccc2)C(=O)CS3)cc1 [Example 71, 4-benzyl-N-(4-cyanobenzyl)-3-oxo-3,4-dihydro-2H-benzo[b-1,4]thiazine-6-carboxamide]	1 to 10 µM
O=C(NCc1c(F)cc(F)cc1F)c1ccc2c(c1)N(S(=O)(=O)c1ccccc1)CCS2 [Example 261, 4-(Phenylsulfonyl)-N-(2,4,6-trifluorobenzyl)-3,4-dihydro-2H-benzo[b-1,4]thiazine-6-carboxamide]	1 to 10 µM
CC1Sc2ccc(C(=O)NCc3ccco3)cc2N(Cc2ccccc2)C1=O (centres unmarked) [Example 134, 4-benzyl-N-(furan-2-ylmethyl)-2-methyl-3-oxo-3,4-dihydro-2H-benzo[b-1,4]thiazine-6-carboxamide]	1 to 10 µM
O=C(NCc1ccco1)c1ccc2c(c1)N(Cc1ccccc1)CCS2 [Example 246, 4-Benzyl-N-(furan-2-ylmethyl)-3,4-dihydro-2H-benzo[b-1,4]thiazine-6-carboxamide]	> 10 µM
N#CCC1Sc2ccc(C(=O)NCc3ccc(F)cc3F)cc2N(Cc2cc(F)cc(F)c2)C1=O (centres unmarked) [Example 162, 2-(cyanomethyl)-N-(2,4-difluorobenzyl)-4-(3,5-difluorobenzyl)-3-oxo-3,4-dihydro-2H-benzo[b][1,4] thiazine-6-carboxamide]	1 to 10 µM
O=C(NCc1c(F)cc(F)cc1F)c1cnc2c(c1)N(Cc1c(F)cccc1Cl)C(=O)CO2 [Example 239, 1-(2-chloro-6-fluorobenzyl)-2-oxo-N-(2,4,6-trifluorobenzyl)-2,3-dihydro-1H-pyrido[2,3-b-1,4]oxazine-7-carboxamide]	> 10 µM
O=C(NCc1ccco1)c1ccc2c(c1)N(Cc1ccccc1Cl)C(=O)CS2 [Example 1, 4-(2-chlorobenzyl)-N-(furan-2-ylmethyl)-3-oxo-3,4-dihydro-2H-benzo[b-1,4]thiazine-6-carboxamide]	> 10 µM
O=C(NCc1ccc(Cl)cc1)c1ccc2c(c1)N(Cc1ccccc1)C(=O)CS2 [Example 73, 4-benzyl-N-(4-chlorobenzyl)-3-oxo-3,4-dihydro-2H-benzo[b-1,4]thiazine-6-carboxamide]	1 to 10 µM
O=C(NCc1coc2ccccc12)c1ccc2c(c1)N(Cc1ccccc1)C(=O)CS2 [Example 70, N-(benzofuran-3-ylmethyl)-4-benzyl-3-oxo-3,4-dihydro-2H-benzo[b-1,4]thiazine-6-carboxamide]	> 10 µM

SMILES	EC50
O=C(NCC1CC1)c1ccc2c(c1)N(Cc1ccccc1F)C(=O)CS2 [Example 20, N-(cyclopropyl-methyl)-4-(2-fluorobenzyl)-3-oxo-3,4-dihydro-2H-benzo[b-1,4]thiazine-6-carboxamide]	> 10 µM
Cc1ccc(CNC(=O)c2ccc3c(c2)N(Cc2c(F)cccc2Cl)C(=O)CS3)cn1 [Example 36, 4-(2-chloro-6-fluorobenzyl)-N-((6-methyl-pyridin-3-yl)methyl)-3-oxo-3,4-dihydro-2H-benzo[b-1,4]thiazine-6-carboxamide]	> 10 µM
O=C(NCc1ccco1)c1ccc2c(c1)N(Cc1ccccc1)C(=O)CS2 [Example 111, 4-benzyl-N-(furan-2-ylmethyl)-3-oxo-3,4-dihydro-2H-benzo[b-1,4]thiazine-6-carboxamide]	> 10 µM
CCOC1Sc2ccc(C(=O)NCc3ccco3)cc2N(Cc2ccccc2F)C1=O (centres unmarked) [Example 137, 2-ethoxy-4-(2-fluorobenzyl)-N-(furan-2-ylmethyl)-3-oxo-3,4-dihydro-2H-benzo[b-1,4]thiazine-6-carboxamide]	> 10 µM
CC1(CO)Sc2ncc(C(=O)NCc3c(F)cc(F)cc3F)cc2N(Cc2cc(F)cc(F)c2)C1=O (centres unmarked) [Example 211, 1-(3,5-difluorobenzyl)-3-(hydroxymethyl)-3-methyl-2-oxo-N-(2,4,6-trifluorobenzyl)-2,3-dihydro-1H-pyrido [2,3-b] [1,4]thiazine-7-carboxamide]	> 10 µM
O=C(NCc1ncccn1)c1ccc2c(c1)N(Cc1ccccc1)C(=O)CS2 [Example 54, 4-benzyl-3-oxo-N-(pyrimidin-2-ylmethyl)-3,4-dihydro-2H-benzo[b-1,4]thiazine-6-carboxamide]	> 10 µM
CC(C)(NC(=O)c1ccc2c(c1)N(Cc1ccccc1)C(=O)CS2)c1ccccc1F [Example 78, 4-benzyl-N-(2-(2-fluorophenyl)propan-2-yl)-3-oxo-3,4-dihydro-2H-benzo[b-1,4]thiazine-6-carboxamide]	> 10 µM
CC1Oc2ncc(C(=O)NCc3c(F)cc(F)cc3F)cc2N(Cc2cc(F)cc(F)c2)C1=O (centres unmarked) [Example 240, 1-(3,5-difluorobenzyl)-3-methyl-2-oxo-N-(2,4,6-trifluorobenzyl)-2,3-dihydro-1H-pyrido[2,3-b-1,4]oxazine-7-carboxamide]	1 to 10 µM
Cc1nc(CN2C(=O)CSc3ccc(C(=O)NCc4ccco4)cc32)cs1 [Example 96, N-(furan-2-ylmethyl)-4-((2-methylthiazol-4-yl)methyl)-3-oxo-3,4-dihydro-2H-benzo[b-1,4]thiazine-6-carboxamide]	> 10 µM
O=C(NCc1ccco1)c1ccc2c(c1)N(Cc1ccccc1OC(F)(F)F)C(=O)CS2 [Example 91, N-(furan-2-ylmethyl)-3-oxo-4-(2-(trifluoromethoxy)benzyl)-3,4-dihydro-2H-benzo[b-1,4]thiazine-6-carboxamide]	> 10 µM
O=C(NCc1ccc(F)cc1F)c1ccc2c(n1)N(Cc1ccc(F)cc1)C(=O)CC2 [Example 282, N-(2,4-difluorobenzyl)-8-(4-fluorobenzyl)-7-oxo-5,6,7,8-tetrahydro-1,8-naphthyridine-2-carboxamide]	1 to 10 µM
Cc1cnc(CNC(=O)c2ccc3c(c2)N(Cc2cc(F)cc(F)c2)C(=O)C(C)S3)o1 (centres unmarked) [Example 163, 4-(3,5-difluorobenzyl)-2-methyl-N-((5-methyloxazol-2-yl)methyl)-3-oxo-3,4-dihydro-2H-benzo[b][1,4] thiazine-6-carboxamide]	1 to 10 µM
N#Cc1cc(C(=O)NCc2ccco2)cc2c1SCC(=O)N2Cc1cc(F)cc(F)c1 [Example 220, 8-cyano-4-(3,5-difluorobenzyl)-N-(furan-2-ylmethyl)-3-oxo-3,4-dihydro-2H-benzo[b-1,4]thiazine-6-carboxamide]	> 10 µM
O=C(NCc1ccc(F)cc1)c1ccc2c(c1)N(Cc1ccccc1Cl)C(=O)CS2 [Example 122, 4-(2-chlorobenzyl)-N-(4-fluorobenzyl)-3-oxo-3,4-dihydro-2H-benzo[b-1,4]thiazine-6-carboxamide]	1 to 10 µM
O=C(NCc1c(F)cc(F)cc1F)c1ccc2c(c1)N(C(=O)c1c(F)cccc1Cl)CCO2 [Example 264, 4-(2-chloro-6-fluorobenzoyl)-N-(2,4,6-trifluorobenzyl)-3,4-dihydro-2H-benzo[b-1,4]oxazine-6-carboxamide]	> 10 µM
CC1CN(C(=O)Cc2ccccc2)c2cc(C(=O)NCc3c(F)cc(F)cc3F)ccc2S1 (centres unmarked) [Example 259, 2-methyl-4-(2-phenylacetyl)-N-(2,4,6-trifluorobenzyl)-3,4-dihydro-2H-benzo[b][1,4]thiazine-6-carboxamide]	> 10 µM
O=C(NCc1ccco1)c1ccc2c(c1)N(CCc1ccccc1Cl)C(=O)CS2 [Example 89, 4-(2-chlorophenethyl)-N-(furan-2-ylmethyl)-3-oxo-3,4-dihydro-2H-benzo[b-1,4]thiazine-6-carboxamide]	> 10 µM
